From US10280179B2, “Spiroquinoxaline derivatives as inhibitors of non-apoptotic regulated cell-death” (Helmholtz Zentrum Munchen—Deutches Forschungszentrum Fur …, priority 2013, dated 2019)

Tests used:
Assay type in all cases: cell-based
[1] = test system: mouse hippocampal cell line (Ht22); experiment: Inhibition of glutamate-induced non-apoptotic cell death (Example B.2); conditions: HT-22, Ht22 cells, glutamate-induced cell death, read-out: Ht22/GLU
From the text: Inhibition of Glutamate-Induced Non-Apoptotic Cell Death by Compounds of the Present Invention
Glutamate toxicity is conferred on cells from the mouse hippocampal cell line (Ht22) by inhibition of the cysteine/glutamate antiporter, System xc-, leading to impaired cysteine uptake and subsequent GSH depletion. This model is frequently used for mimicking glutathione depletion following oxidative stress in stroke, brain trauma and other neurodegenerative diseases and cellular conditions following ischemia (for example: van Leyen et al, J. Neurochem. 92:824-30 (2005)).
Compounds disclosed herein were evaluated for their ability to promote cell survival upon administration of a lethal dose of glutamate (GLU) to the cell-culture medium.
Briefly, Ht22 cells (ATCC) were propagated DMEM supplemented with 10% FBS/1% Penicillin-Streptomycin, and then seeded onto 96-well plates at a concentration of 2,000 cells/well in 100 μL of MEDIA, simultaneously with glutamate (Sigma Aldrich) to a final concentration of 5 mM, together with increasing concentrations of the compound to be tested (0.5 pM to 100 μM), and the plates incubated at 37° C./5% CO2 for 72 hours. Compound dilutions were prepared from 10 mM stocks dissolved in DMSO and diluted in media. Cells treated with glutamate alone were used as negative control and alpha-tocopherol (Sigma Aldrich) was used as positive control. Compound concentrations were tested in triplicate. After incubation, cell survival was detected and quantified as described in Example B.1.

Pfa1 cells = experiment: Inhibition of non-apoptotic cell death after tamoxifen-induced GPx4 knockout in a recombinant cell line (Example B.4); conditions: Mus musculus, read-out: Pfa1/TAM IC50
From the text: Inhibition of Non-Apoptotic Cell-Death by Compounds Disclosed Herein Using a Recombinant Cell Line
To combat high intracellular ROS levels, mammalian cells have evolved an intricate network of ROS scavenging in cells, in which the thioredoxin and glutathione (GSH) dependent systems prevail. […] Knockout of GPx4 in neurons causes massive neurodegeneration in cortical, cerebellar and hippocampal neurons underscoring the high relevance of ROS-induced cell death signaling in the brain. Briefly, immortalised fibroblasts from these mice were made to contain tamoxifen-inducible CreERT2, which catalyzes the functional ablation of both copies of GPx4 and resulting in a complete knockout of GPx4, a massive ROS burst, and cell death in cell culture. These cells (Pfa1 cells) were used to characterize compounds of the present invention, whereby tamoxifen (TAM) was given on day 0 along with the compound under test, and 72 hours later cell survival was evaluated using AlamarBlue.

[2] = Cellular toxicity, same assay as Example B.4 without TAM (Example B.5); conditions: mouse; Pfa1 cells without TAM; read-out: TC50 (the source's name)
From the text: Cellular Toxicity of Compounds of the Invention
An estimate of the toxicity for compounds of the invention was obtained by using the same assay as described in Example B.4, but without the addition of TAM. […] Such TC50 values obtained for certain compounds disclosed herein, together with an approximate therapeutic window (estimated by dividing each TC50 by the corresponding IC50 determined from example B.4) are shown in Table 3.

| SMILES | IC50 [1] | IC50 (Pfa1 cells) | CC50 [2] |
| --- | --- | --- | --- |
| Clc1ccc(CNC2=Nc3ccccc3NC23CCCCC3)cc1 [C-3] | < 0.5 µM | < 0.2 µM | 20 to 50 µM |
| Fc1cccc(CNC2=Nc3ccccc3NC23CCCCC3)c1 [C-5] | < 5 µM | < 0.5 µM | 20 to 50 µM |
| Cc1cccc(CNC2=Nc3ccccc3NC23CCCCC3)c1 [C-11] | < 1 µM | < 0.5 µM | 10 to 20 µM |
| FC(F)(F)c1cccc(CNC2=Nc3ccccc3NC23CCCCC3)c1 [C-23] | < 0.5 µM | < 0.05 µM | 10 to 20 µM |
| COc1cccc(CNC2=Nc3ccccc3NC23CCCCC3)c1 [C-47] | < 1 µM | < 0.5 µM | 20 to 50 µM |
| Fc1cc(Cl)ccc1CNC1=Nc2ccccc2NC12CCCCC2 [C-61] | < 0.5 µM | < 0.2 µM | 20 to 50 µM |
| Clc1cccc(CCNC2=Nc3ccccc3NC23CCCCC3)c1 [C-79] | < 0.5 µM | < 0.5 µM | 2 to 5 µM |
| Cc1cc2c(cc1C)NC1(CCCCC1)C(NCc1ccccc1)=N2 [C-218] | < 0.1 µM | < 0.1 µM | 20 to 50 µM |
| c1ccc(CNC2=Nc3ccccc3NC23CCCC3)cc1 [C-219] | < 5 µM | < 2 µM | 20 to 50 µM |
| Clc1ccc(CNC2=Nc3ccccc3NC23CCCCCC3)cc1 [C-220] | < 0.5 µM | < 0.2 µM | 10 to 20 µM |
| c1ccc(CCCNC2=Nc3ccccc3NC23CCCCC3)cc1 [C-221] | < 1 µM | < 1 µM | 5 to 10 µM |
| Fc1cccc(F)c1CNC1=Nc2ccccc2NC12CCCCC2 [C-222] | < 1 µM | < 0.2 µM | 20 to 50 µM |
| COc1cccc(CNC2=Nc3ccccc3NC23CCCCCC3)c1 [C-224] | < 1 µM | < 0.5 µM | 20 to 50 µM |
| Cc1cc(C)cc(CNC2=Nc3ccccc3NC23CCCCC3)c1 [C-225] | < 0.5 µM | < 0.5 µM | 10 to 20 µM |
| c1ccc(CCNC2=Nc3ccccc3NC23CCCCC3)cc1 [C-226] | < 2 µM | < 1 µM | 10 to 20 µM |
| c1ccc(C(CNC2=Nc3ccccc3NC23CCCCC3)c2ccccc2)cc1 [C-229] | < 1 µM | < 0.2 µM | 2 to 5 µM |
| Clc1ccc(CNC2=Nc3ccccc3NC23CCCCC3)c(Cl)c1 [C-230] | < 0.5 µM | < 0.1 µM | 20 to 50 µM |
| Fc1ccc(CNC2=Nc3ccccc3NC23CCCCC3)c(F)c1 [C-231] | < 1 µM | < 0.5 µM | 20 to 50 µM |
| c1ccc(CCCCNC2=Nc3ccccc3NC23CCCCC3)cc1 [C-232] | < 1 µM | < 2 µM | 20 to 50 µM |
| CC(CCc1ccccc1)NC1=Nc2ccccc2NC12CCCCC2 (centres unmarked) [C-233] | < 1 µM | < 1 µM | 20 to 50 µM |
| Clc1cccc(CNC2=Nc3cc(Cl)c(Cl)cc3NC23CCCCCC3)c1 [C-234] | < 0.5 µM | < 0.5 µM | 20 to 50 µM |
| Clc1cc2c(cc1Cl)NC1(CCCCCC1)C(NCc1ccccc1)=N2 [C-235] | < 0.5 µM | < 0.2 µM | 10 to 20 µM |
| c1ccc(CNC2=Nc3ccccc3NC23CCCCCCC3)cc1 [C-236] | < 0.5 µM | < 0.5 µM | 10 to 20 µM |

| SMILES | IC50 [1] | IC50 (Pfa1 cells) | CC50 [2] |
| --- | --- | --- | --- |
| Clc1cc2c(cc1Cl)NC1(CCCCCCC1)C(NCc1ccccc1)=N2 [C-237] | < 0.5 µM | < 0.5 µM | 10 to 20 µM |
| Fc1cc2c(cc1F)NC1(CCCCC1)C(NCc1ccccc1)=N2 [C-238] | < 0.2 µM | < 0.5 µM | 20 to 50 µM |
| Cc1cc2c(cc1C)NC1(CCCCCC1)C(NCc1ccccc1)=N2 [C-239] | < 0.2 µM | < 0.2 µM | 10 to 20 µM |
| Fc1cccc(F)c1CNC1=Nc2cc(Cl)c(Cl)cc2NC12CCCCC2 [C-240] | < 0.2 µM | < 0.5 µM | 5 to 10 µM |
| Cc1cc2c(cc1C)NC1(CCCCCCC1)C(NCc1ccccc1)=N2 [C-241] | < 0.2 µM | < 0.5 µM | 5 to 10 µM |
| Fc1ccc(CNC2=Nc3ccccc3NC23CCCCCC3)c(F)c1 [C-242] | < 1 µM | < 1 µM | 10 to 20 µM |
| Clc1cc2c(cc1Cl)NC1(CCCCCC1)C(NCc1ccccc1Cl)=N2 [C-243] | < 1 µM | < 0.5 µM | 10 to 20 µM |
| CC(NC1=Nc2ccccc2NC12CCCCC2)c1ccccc1 (centres unmarked) [C-244] | < 1 µM | < 1 µM | 10 to 20 µM |
| Cc1cccc(CNC2=Nc3cc(Cl)c(Cl)cc3NC23CCCCC3)c1 [C-268] | < 0.5 µM | < 0.1 µM | 10 to 20 µM |
| CC(C)(C)c1ccc(CNC2=Nc3ccccc3NC23CCCCC3)cc1 [C-269] | < 0.5 µM | < 0.2 µM | 5 to 10 µM |
| Fc1cccc(CNC2=Nc3ccccc3NC23CCNCC3)c1 [N-5] | < 0.05 µM | < 0.1 µM | 5 to 10 µM |
| COc1cccc(CNC2=Nc3ccccc3NC23CCNCC3)c1 [N-14] | < 0.2 µM | < 0.5 µM | 20 to 50 µM |
| Clc1ccc(CNC2=Nc3ccccc3NC23CCNCC3)c(Cl)c1 [N-56] | < 0.05 µM | < 0.01 µM | 1 to 2 µM |
| Clc1cccc(CCNC2=Nc3ccccc3NC23CCNCC3)c1 [N-79] | < 0.05 µM | < 0.1 µM | 2 to 5 µM |
| Cc1cc2c(cc1C)NC1(CCNCC1)C(NCc1cccc(Cl)c1)=N2 [N-111] | < 0.01 µM | < 0.01 µM | 1 to 2 µM |
| Clc1cccc(CNC2=Nc3cc(Cl)c(Cl)cc3NC23CCNCC3)c1 [N-115] | < 0.05 µM | < 0.01 µM | 0.2 to 0.5 µM |
| c1ccc(CNC2=Nc3ccccc3NC23CCNCC3)cc1 [N-206] | < 0.5 µM | < 0.2 µM | 20 to 50 µM |
| Clc1cc2c(cc1Cl)NC1(CCNCC1)C(NCc1ccccc1Cl)=N2 [N-207] | < 0.05 µM | < 0.01 µM | 0.5 to 1 µM |
| Clc1ccc(CNC2=Nc3cc(Cl)c(Cl)cc3NC23CCNCC3)cc1 [N-208] | < 0.05 µM | < 0.01 µM | 0.5 to 1 µM |
| CN1CCC2(CC1)Nc1ccccc1N=C2NCc1ccccc1Cl [N-209] | < 0.5 µM | < 0.1 µM | 5 to 10 µM |
| Clc1ccc(CNC2=Nc3ccccc3NC23CCNCC3)cc1Cl [N-211] | < 0.05 µM | < 0.01 µM | 1 to 2 µM |
| O=S1(=O)CCC2(CC1)Nc1cc(Cl)c(Cl)cc1N=C2NCc1ccccc1 [O/S-360] | < 2 µM | < 2 µM | – |
